In US12109197B2, “Combinations of β-lactam compounds and probenecid and uses thereof” (Iterum Therapeutics International Limited, priority 2018, dated 2024):
Where “and” joins values, the source holds several entries; their conditions need not be identical. Equal entries are not always repeated. Where two headings read alike, the source gives them in different places.

Tests used:
[1] = type: in vivo, human; settings: for Tlast / Tmax: median; for TAMIC1: minimum concentration 0.5 μg/mL; for TAMIC2: minimum concentration 1.0 μg/mL
Experimental: A Phase 1, randomized, investigator-blind, subject-blind, sponsor-open, placebo-controlled, single and multiple dose study of Compound II-2b was further conducted. There were 6 planned cohorts of subjects. Each cohort was planned to enroll 12 subjects, for a total of 72 planned subjects. Subjects in the multidose cohort were dosed for 10 days; new subjects were recruited for each cohort. Subjects in these cohorts, on Days 1 through 9, were dosed BTD (12 hours apart) at approximately 0800 and 2000 hours. On Day 10, subjects were to be dosed only once at approximately 0800 hours.

[2] = type: in vivo, human; settings: for TAMIC0.5 / TAMIC1.0 / Tmax: median; for Ae24%: percent of administered dose, adjusted for MW; for CLr: renal clearance; for Ae24: urine over 24 hours postdose
Excerpt: The pharmacokinetics of Compound III-2b wer studies in a randomized, subject-blinded, investigator- and sponsor-open, placebo-controlled, multiple-dose study, run in parallel cohorts. There were 7 cohorts of approximately 10 subjects each (4:1 active:placebo).

[3] = for Cmax / TAMIC0.5 / TAMIC1.0 / Tmax / AUCtau / AUCinf / AUClast / t1/2: plasma; for Tmax: median (minimum-maximum); for AUCtau: time 0 to 12 hours
Experimental: Subjects were to be dosed twice a day (every 12 hours) for 6 days and on Day 7 they were to be dosed once. All treatment groups could be run in parallel or sequentially. Subjects were allocated based on the randomization list. Randomization numbers were assigned sequentially as subjects entered into groups on the basis of their order of entry into the study. Subjects who withdrew for reasons unrelated to safety may have been replaced. Blood samples were obtained at prespecified intervals in order to characterize pharmacokinetics.

[4] = 2000 mg BID, Study Day 1, plasma
[5] = 2000 mg BID, Study Day 10, plasma
[6] = Cohort 2: 1 g BID, fasted, Day 1
[7] = Cohort 2: 1 g BID, fasted, Day 7
[8] = Cohort 3: 1.5 g BID, fed, Day 1
[9] = Cohort 3: 1.5 g BID, fed, Day 7
[10] = Cohort 4: 0.5 g BID, fasted, Day 1
[11] = Cohort 4: 0.5 g BID, fasted, Day 7

CCC(CC)C(=O)OCOC(=O)C1=C(S[C@H]2CC[S@@+]([O-])C2)S[C@@H]2[C@@H]([C@@H](C)O)C(=O)N12 [Compound III-2b, Sulopenem Etzadroxil]
AUCinf [1, 4]: 18100 ng·h/mL
AUCtau [1, 4]: 17500 ng·h/mL
Cmax [1, 4]: 6090 ng/mL
t1/2 [1, 4]: 1.66 h
Tlast [1, 4]: 8.00 h
Tmax [1, 4]: 1.00 h
TAMIC1 [1, 4]: 6.93
TAMIC2 [1, 4]: 5.57
Ae % ([1]; 2000 mg BID, Study Day 6, urine, percent of sulopenem dose excreted): 17.3 (26) %
Ae24 ([1]; 2000 mg BID, Study Day 6, urine, sulopenem excreted unchanged over 24 hours): 253000 (26) ug
Rac ([1]; 2000 mg BID, Study Day 10, accumulation ratio): 0.685
AUCtau [1, 5]: 12200 ng·h/mL
Cmax [1, 5]: 5480 ng/mL
Ctrough [1, 5]: 0.00 ng/mL
t1/2 [1, 5]: 1.27 h
Tlast [1, 5]: 8.00 h
Tmax [1, 5]: 1.00 h
TAMIC1 [1, 5]: 4.70
TAMIC2 [1, 5]: 3.61
AUCtau ([1]; 2000 mg, Day 1): 17500 ng·h/mL
AUCtau ([1]; 2000 mg, Day 10): 12200 ng·h/mL
AUCinf ([2]; 500 mg FED, Day 1): 3400 ng·h/mL
AUCinf ([2]; 500 mg FED, Day 7): 2990 ng·h/mL
AUCinf ([2]; 1000 mg FED, Day 1): 9430 ng·h/mL
AUCinf ([2]; 1000 mg FED, Day 7): 7800 ng·h/mL
AUCinf ([2]; 1000 mg TID FED, Day 1): 8290 ng·h/mL
AUCinf ([2]; 1000 mg TID FED, Day 7): 6750 ng·h/mL
AUCinf ([2]; 1000 mg, Day 1): 6680 ng·h/mL
AUCinf ([2]; 1000 mg, Day 7): 6020 ng·h/mL
AUCinf ([2]; 1500 mg, Day 1): 12900 ng·h/mL
AUCinf ([2]; 1500 mg, Day 7): 9950 ng·h/mL
AUCinf ([2]; Cohort 1: 1 g BID, fed, Day 1): 9430 (13) ng · h/mL
AUClast ([2]; Cohort 1: 1 g BID, fed, Day 1): 9330 (13) ng · h/mL
Cmax ([2]; Cohort 1: 1 g BID, fed, Day 1): 4420 (24) ng/mL
t½ ([2]; Cohort 1: 1 g BID, fed, Day 1): 0.823 (13) h
TAMIC0.5 ([2]; Cohort 1: 1 g BID, fed, Day 1): 4.35 h
TAMIC1.0 ([2]; Cohort 1: 1 g BID, fed, Day 1): 3.21 h
Tmax ([2]; Cohort 1: 1 g BID, fed, Day 1): 1.50 h
AUCinf ([2]; Cohort 1: 1 g BID, fed, Day 7): 7800 (17) ng · h/mL
AUClast ([2]; Cohort 1: 1 g BID, fed, Day 7): 7670 (17) ng · h/mL
Cmax ([2]; Cohort 1: 1 g BID, fed, Day 7): 3770 (23) ng/mL
t½ ([2]; Cohort 1: 1 g BID, fed, Day 7): 0.761 (11) h
Rac ([2]; Cohort 1: 1 g BID, fed, Day 7, accumulation ratio): 0.832 (13)
TAMIC0.5 ([2]; Cohort 1: 1 g BID, fed, Day 7): 3.32 h
TAMIC1.0 ([2]; Cohort 1: 1 g BID, fed, Day 7): 2.64 h
Tmax ([2]; Cohort 1: 1 g BID, fed, Day 7): 2.00 h
Ae24% ([2]; Cohort 1: 1 g BID, fed, Day 7): 19.0 (27) %
CLr ([2]; Cohort 1: 1 g BID, fed, Day 7): 17.4 (19) L/h
Ae24 ([2]; Cohort 1: 1 g BID, fed, Day 7): 138.7 (27) mg
AUCinf [2, 6]: 6680 (20) ng · h/mL
AUClast [2, 6]: 6770 (22) ng · h/mL
Cmax [2, 6]: 2760 (13) ng/mL
t½ [2, 6]: 1.37 (33) h
TAMIC0.5 [2, 6]: 3.69 h
TAMIC1.0 [2, 6]: 2.91 h
Tmax [2, 6]: 1.50 h
AUCinf [2, 7]: 6020 (16) ng · h/mL
AUClast [2, 7]: 6070 (19) ng · h/mL
Cmax [2, 7]: 2410 (33) ng/mL
t½ [2, 7]: 1.08 (24) h
Rac ([2]; Cohort 2: 1 g BID, fasted, Day 7, accumulation ratio): 0.910 (11)
TAMIC0.5 [2, 7]: 4.18 h
TAMIC1.0 [2, 7]: 2.72 h
Tmax [2, 7]: 1.75 h
Ae24% [2, 7]: 10.2 (23) %
CLr [2, 7]: 12.2 (30) L/h
Ae24 [2, 7]: 74.4 (23) mg
AUCinf [2, 8]: 12900 (23) ng · h/mL
AUClast [2, 8]: 12100 (21) ng · h/mL
Cmax [2, 8]: 3700 (42) ng/mL
t½ [2, 8]: 1.20 (14) h
TAMIC0.5 [2, 8]: 6.34 h
TAMIC1.0 [2, 8]: 4.81 h
Tmax [2, 8]: 2.50 h
AUCinf [2, 9]: 9950 (15) ng · h/mL
AUClast [2, 9]: 9710 (15) ng · h/mL
Cmax [2, 9]: 2670 (28) ng/mL
t½ [2, 9]: 0.901 (14) h
Rac ([2]; Cohort 3: 1.5 g BID, fed, Day 7, accumulation ratio): 0.809 (14)
TAMIC0.5 [2, 9]: 5.96 h
TAMIC1.0 [2, 9]: 4.44 h
Tmax [2, 9]: 2.51 h
AUCinf [2, 10]: 3400 (20) ng · h/mL
AUClast [2, 10]: 3260 (22) ng · h/mL
Cmax [2, 10]: 1470 (34) ng/mL
t½ [2, 10]: 0.862 (19) h
TAMIC0.5 [2, 10]: 2.66 h
TAMIC1.0 [2, 10]: 1.38 h
Tmax [2, 10]: 1.03 h
AUCinf [2, 11]: 2990 (23) ng · h/mL
AUClast [2, 11]: 2730 (27) ng · h/mL
Cmax [2, 11]: 1310 (22) ng/mL
t½ [2, 11]: 0.797 (16) h
Rac ([2]; Cohort 4: 0.5 g BID, fasted, Day 7, accumulation ratio): 0.873 (29)
TAMIC0.5 [2, 11]: 2.38 h
TAMIC1.0 [2, 11]: 0.803 h
Tmax [2, 11]: 1.50 h
AUCinf ([2]; Cohort 7: 1 g TID, fed, Day 1): 8290 (6) ng · h/mL
AUClast ([2]; Cohort 7: 1 g TID, fed, Day 1): 7670 (13) ng · h/mL
Cmax ([2]; Cohort 7: 1 g TID, fed, Day 1): 3320 (36) ng/mL
t½ ([2]; Cohort 7: 1 g TID, fed, Day 1): 1.26 (40) h
TAMIC0.5 ([2]; Cohort 7: 1 g TID, fed, Day 1): 4.90 h
TAMIC1.0 ([2]; Cohort 7: 1 g TID, fed, Day 1): 3.32 h
Tmax ([2]; Cohort 7: 1 g TID, fed, Day 1): 1.75 h
AUCinf ([2]; Cohort 7: 1 g TID, fed, Day 7): 6750 (11) ng · h/mL
AUClast ([2]; Cohort 7: 1 g TID, fed, Day 7): 6230 (16) ng · h/mL
Cmax ([2]; Cohort 7: 1 g TID, fed, Day 7): 2090 (28) ng/mL
t½ ([2]; Cohort 7: 1 g TID, fed, Day 7): 0.790 (2) h
Rac ([2]; Cohort 7: 1 g TID, fed, Day 7, accumulation ratio): 0.827 (21)
TAMIC0.5 ([2]; Cohort 7: 1 g TID, fed, Day 7): 4.62 h
TAMIC1.0 ([2]; Cohort 7: 1 g TID, fed, Day 7): 3.22 h
Tmax ([2]; Cohort 7: 1 g TID, fed, Day 7): 4.00 h
Rac ([2]; in vivo): 1.10 (24)
AUCtau, GM ([3]; Day 7, With Probenecid): 5325.20 ng·h/mL
Cmax, GM ([3]; Day 7, With Probenecid): 1532.10 ng/mL
AUCtau, GM ([3]; Day 7, Without Probenecid): 3084.36 ng·h/mL
Cmax, GM ([3]; Day 7, Without Probenecid): 1233.18 ng/mL
AUC of sulopenem on Day 7 compared with Day 1 ([3]; administered alone through the oral route): lower than that on Day 1
AUC of sulopenem on Day 7 compared with Day 1 ([3]; co-administered with probenecid): increased on Day 7 beyond that seen on Day 1
Cmax ([3]; fasted, Day 1): 1699.1 (31.64) ng/mL
TAMIC0.5 ([3]; fasted, Day 1): 2.6348 (14.85) h
TAMIC1.0 ([3]; fasted, Day 1): 1.0758 (94.61) h
Tmax ([3]; fasted, Day 1): 1.0000 (0.4830-2.017) h
AUCtau ([3]; fasted, Day 1): 3623.8 (19.19) hr*ng/mL and 3623.8 hr*ng/mL
AUCinf ([3]; fasted, Day 7): 2627.8 (18.89) hr*ng/mL
AUClast ([3]; fasted, Day 7): 2607.4 (19.10) hr*ng/mL
Cmax ([3]; fasted, Day 7): 1289.4 (39.17) ng/mL
TAMIC0.5 ([3]; fasted, Day 7): 2.1088 (16.74) h
TAMIC1.0 ([3]; fasted, Day 7): 0.732 (62.70) h
t1/2 ([3]; fasted, Day 7): 0.9376 (15.34) h
Tmax ([3]; fasted, Day 7): 0.9915 (0.5000-1.033) h
AUCtau ([3]; fasted, Day 7): 2626.3 (18.89) hr*ng/mL and 2626.3 hr*ng/mL
Cmax ([3]; fed, Day 1): 1730.9 (46.66) ng/mL
TAMIC0.5 ([3]; fed, Day 1): 3.0103 (31.13) h
TAMIC1.0 ([3]; fed, Day 1): 2.0882 (25.12) h
Tmax ([3]; fed, Day 1): 1.000 (1.5000-2.983) h
AUCtau ([3]; fed, Day 1): 4413.7 (27.00) hr*ng/mL
AUCinf ([3]; fed, Day 7): 3712.7 (24.27) hr*ng/mL
AUClast ([3]; fed, Day 7): 3537 (25.01) hr*ng/mL
Cmax ([3]; fed, Day 7): 1179.4 (25.94) ng/mL
TAMIC0.5 ([3]; fed, Day 7): 2.8507 (31.48) h
TAMIC1.0 ([3]; fed, Day 7): 1.3191 (62.54) h
t1/2 ([3]; fed, Day 7): 0.9114 (26.68) h
Tmax ([3]; fed, Day 7): 1.483 (2.0000-4.000) h
AUCtau ([3]; fed, Day 7): 3706.4 (24.21) hr*ng/mL
